Laboratory results: patent US6696293B2, “Process for producing carotenoids and biological materials useful therefor” (Roche Vitamins Inc., priority 2000, dated 2004)

System: P. rhodozyma ATCC 96594
Experiment: Growth of P. rhodozyma colonies on SHAM-containing YPD-agar
Assay type: cell-based, Phaffia rhodozyma
Conditions: 3 day-cultivation at 20° C.; for Relative colony diameter (%): relative to control colonies without SHAM
Protocol: To examine the effects of the inhibition of KCN-resistant respiration mediated by alternative oxidase on the growth of P. rhodozyma, SHAM was added to a culture of P. rhodozyma on YPD-agar medium. SHAM was dissolved in ethanol and added to the YPD-agar medium to give 0.05, 0.15, 0.30, 0.45 and 0.90 mg/ml as a final concentration. After dilution, 2×10^7 cells/ml of P. rhodozyma ATCC 96594 were spread on the media. After a 3 day-cultivation at 20° C., colonies were counted. […] However, the colonies that grew on SHAM-containing media were smaller than the colonies that grew on the control media.

SMILES: O=C(NO)c1ccccc1O [SHAM, Salicylhydroxamic acid]
- Relative colony diameter (%) (SHAM 0.05 mg/ml in YPD-agar): 100%
- Relative colony diameter (%) (SHAM 0.15 mg/ml in YPD-agar): 70%
- Relative colony diameter (%) (SHAM 0.30 mg/ml in YPD-agar): 40%
- Relative colony diameter (%) (SHAM 0.45 mg/ml in YPD-agar): 30%
- Relative colony diameter (%) (SHAM 0.90 mg/ml in YPD-agar): 12%
- Number of colonies that grew on SHAM-containing YPD agar (SHAM 0.05-0.90 mg/ml, compared with control medium without SHAM): almost the same as that on control medium
